Assay: xn = mol fraction of the nth substance listed
Conditions: 101 kPa

CCCC[N+]1(C)CCCC1.O=S(=O)([N-]S(=O)(=O)C(F)(F)F)C(F)(F)F + CO
Conditions | electrical conductivity [S/m] | viscosity [mPa·s]
293.15 K, x1 = 0.11 | 0.628 | 2.16
293.15 K, x1 = 0.16 | 1.22 | 3.9
293.15 K, x1 = 0.21 | 1.6 | 6.01
293.15 K, x1 = 0.32 | 1.98 | 10.65
293.15 K, x1 = 0.42 | 2.14 | 15.15
293.15 K, x1 = 0.47 | 2.04 | 17.28
293.15 K, x1 = 0.53 | 1.82 | 19.42
293.15 K, x1 = 0.58 | 1.63 | 21.7
293.15 K, x1 = 0.63 | 1.47 | 24.4
293.15 K, x1 = 0.68 | 1.23 | 27.6
293.15 K, x1 = 0.74 | 0.998 | 31.9
293.15 K, x1 = 0.79 | 0.82 | 37.6
293.15 K, x1 = 0.84 | 0.649 | 45.2
293.15 K, x1 = 0.89 | 0.402 | 55.3
293.15 K, x1 = 0.95 | – | 68.7
293.15 K, x1 = 1 | 0.229 | 86
298.15 K, x1 = 0.05 | 0.399 | 0.94
298.15 K, x1 = 0.11 | 0.684 | 1.93
298.15 K, x1 = 0.16 | 1.32 | 3.43
298.15 K, x1 = 0.21 | 1.73 | 5.24
298.15 K, x1 = 0.32 | 2.15 | 9.18
298.15 K, x1 = 0.37 | 2.32 | 11.1
298.15 K, x1 = 0.42 | 2.37 | 12.93
298.15 K, x1 = 0.47 | 2.33 | 14.69
298.15 K, x1 = 0.53 | 2.12 | 16.43
298.15 K, x1 = 0.58 | 1.88 | 18.28
298.15 K, x1 = 0.63 | 1.66 | 20.39
298.15 K, x1 = 0.68 | 1.43 | 23
298.15 K, x1 = 0.74 | 1.2 | 26.3
298.15 K, x1 = 0.79 | 0.991 | 30.8
298.15 K, x1 = 0.84 | 0.786 | 36.7
298.15 K, x1 = 0.89 | 0.495 | 44.6
298.15 K, x1 = 0.95 | – | 54.9
298.15 K, x1 = 1 | 0.282 | 68.1
303.15 K, x1 = 0.05 | 0.43 | 0.88
303.15 K, x1 = 0.11 | 0.754 | 1.75
303.15 K, x1 = 0.16 | 1.43 | 3.06
303.15 K, x1 = 0.21 | 1.88 | 4.62
303.15 K, x1 = 0.32 | 2.35 | 7.96
303.15 K, x1 = 0.37 | 2.53 | 9.57
303.15 K, x1 = 0.47 | 2.59 | 12.57
303.15 K, x1 = 0.53 | 2.37 | 14.02
303.15 K, x1 = 0.58 | 2.1 | 15.54
303.15 K, x1 = 0.63 | 1.84 | 17.28
303.15 K, x1 = 0.68 | 1.6 | 19.39
303.15 K, x1 = 0.74 | 1.35 | 22.1
303.15 K, x1 = 0.79 | 1.13 | 25.6
303.15 K, x1 = 0.84 | 0.94 | 30.2
303.15 K, x1 = 0.89 | 0.601 | 36.2
303.15 K, x1 = 0.95 | – | 44
303.15 K, x1 = 1 | 0.344 | 54
308.15 K, x1 = 0.05 | 0.464 | 0.82
308.15 K, x1 = 0.11 | 0.816 | 1.6
308.15 K, x1 = 0.16 | 1.54 | 2.75
308.15 K, x1 = 0.21 | 2.07 | 4.1
308.15 K, x1 = 0.32 | 2.55 | 6.97
308.15 K, x1 = 0.37 | 2.74 | 8.34
308.15 K, x1 = 0.42 | 2.86 | 9.64
308.15 K, x1 = 0.53 | 2.65 | 12.09
308.15 K, x1 = 0.58 | 2.36 | 13.36
308.15 K, x1 = 0.63 | 2.1 | 14.8
308.15 K, x1 = 0.74 | 1.57 | 18.74
308.15 K, x1 = 0.79 | 1.33 | 21.6
308.15 K, x1 = 0.84 | 1.1 | 25.3
308.15 K, x1 = 0.89 | 0.686 | 30.2
308.15 K, x1 = 0.95 | – | 36.4
308.15 K, x1 = 1 | 0.415 | 44.4
313.15 K, x1 = 0.05 | 0.504 | 0.77
313.15 K, x1 = 0.11 | 0.86 | 1.47
313.15 K, x1 = 0.16 | 1.66 | 2.48
313.15 K, x1 = 0.21 | 2.24 | 3.67
313.15 K, x1 = 0.26 | 2.53 | 4.92
313.15 K, x1 = 0.37 | 2.95 | 7.34
313.15 K, x1 = 0.42 | 3.07 | 8.45
313.15 K, x1 = 0.47 | 3.09 | 9.51
313.15 K, x1 = 0.58 | 2.63 | 11.64
313.15 K, x1 = 0.63 | 2.38 | 12.85
313.15 K, x1 = 0.79 | 1.55 | 18.4
313.15 K, x1 = 0.89 | 0.876 | 25.1
313.15 K, x1 = 0.95 | – | 29.8
318.15 K, x1 = 0.05 | 0.538 | 0.73
318.15 K, x1 = 0.11 | 0.94 | 1.36
318.15 K, x1 = 0.16 | 1.8 | 2.26
318.15 K, x1 = 0.26 | 2.7 | 4.39
318.15 K, x1 = 0.32 | 3.02 | 5.45
318.15 K, x1 = 0.37 | 3.18 | 6.46
318.15 K, x1 = 0.42 | 3.26 | 7.41
318.15 K, x1 = 0.47 | 3.3 | 8.32
318.15 K, x1 = 0.53 | 3.18 | 9.22
318.15 K, x1 = 0.58 | 2.86 | 10.16
318.15 K, x1 = 0.74 | 1.98 | 14.02
318.15 K, x1 = 0.89 | 0.991 | 21.4
318.15 K, x1 = 1 | 0.559 | 29.7

CO + CCCC[N+]1(C)CCCC1.O=S(=O)([N-]S(=O)(=O)C(F)(F)F)C(F)(F)F
x2 = 0
Conditions | viscosity [mPa·s]
298.15 K | 0.7
303.15 K | 0.66
308.15 K | 0.61
313.15 K | 0.57
318.15 K | 0.53

Reference: a compilation of properties of binary mixtures (doi:10.1007/s11581-010-0511-5)
